According to patent US9725454B2, “Crystalline forms of ponatinib hydrochloride” (SANDOZ AG, priority 2013, dated 2017):
Where a name gives a salt, the structure may show the parent alone.

Columns and labels:
[1] = Storage stability, chemical purity by HPLC; type: physicochemical; details: conclusion from the stability studies
Experimental: (§1) To determine concentration, solutions were diluted in methanol; to determine purity, 2.7 mg material was dissolved in 1 mL methanol. The conditions listed below were then used. • Instrument: Agilent 1100 • Column: Waters Symmetry C18 5μ 150×3.9 mm column • Column Temperature: 25° C. • Autosampler Temperature: Not controlled • UV wavelength: 254 nm • Injection Volume: 3 μL • Flow Rate: 1.2 mL/min • Mobile Phase A: 0.01% formic acid in water • Mobile Phase B: 0.01% formic acid in ACN • Gradient program: […]
In order to assess physical and chemical stability, Ponatinib HCl crystal form 1 obtained by direct crystallization according to example 4, and the crystalline ponatinib HCl Form 1 which was obtained via Form 8 according to example 7, were stored at 25° C./60%RH and 40° C./75% RH. After 1 week, the three samples were analysed by XRPD and HPLC (chemical purity).

[2] = Aqueous solubility by HPLC analysis; type: physicochemical; details: water, thermodynamic from solid
Experimental: as §1
A filtered solution of ponatinib HCl in acetonitrile/water (1:1) was allowed to slowly evaporate at ambient temperature. A hydrated crystal form 8 showing characteristic peaks at 6.21 and 10.5 2Theta was found. Approximately 11.4% water content was found by KF analysis. […] (peak at 90° C.).
A filtered solution of ponatinib HCl in acetone/water (1:1) was allowed to slowly evaporate. A hydrated crystal form 8 showing characteristic peaks at 6.21 and 10.5 2Theta was found. Approximately 11.4% water content was found by KF analysis. […] (peak at 90° C.).
Ponatinib HCl form 1 was slurried in water for 24 h at 22° C. A hydrated crystal form 8 showing characteristic peaks at 6.21 and 10.5 2Theta was found. Approximately 11.4% water content was found by KF analysis. […] (peak at 90° C.).

SMILES | chemical stability compared with form 1 obtained by direct crystallization [1] | solubility [2]
Cc1ccc(C(=O)Nc2ccc(CN3CCN(C)CC3)c(C(F)(F)F)c2)cc1C#Cc1cnc2cccnn12 [Form 1 via form 8, ponatinib hydrochloride] | higher chemical stability | 
Cc1ccc(C(=O)Nc2ccc(CN3CCN(C)CC3)c(C(F)(F)F)c2)cc1C#Cc1cnc2cccnn12 [Form 8, ponatinib hydrochloride] |  | 620 µg/mL
